Laboratory results published in the supplement of paper PMC10307832.

Tests used:
Experiment in all cases: relative viability (nuclei count vs DMSO), 5 days (fraction); higher = more cells survive
[1] = compound: CS(=O)(=O)c1ccc(-c2cnc(N)c(C(=O)Nc3ccccc3)n2)cc1 [VE-821] + CC1(C)CCC(c2ccc(Cl)cc2)=C(CN2CCN(c3ccc(C(=O)NS(=O)(=O)c4ccc(N[C@H](CCN5CCOCC5)CSc5ccccc5)c(S(=O)(=O)C(F)(F)F)c4)cc3)CC2)C1 [Navitoclax] (partner 0.5 µM)
In short: (§1)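 One day after seeding in 1536-well plates, lung cancer cell lines were dosed by pin tool. Dosing was either single-drug or a fixed anchor-drug dose plus five library-drug doses (not always all listed) in √10 steps. After 5 days, nuclei were stained in one fix-and-stain step and counted on 4× images, and relative viability is the nuclei count of treated wells over that of vehicle wells, given as the median of duplicate plates.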

[2] = compound: CS(=O)(=O)c1ccc(-c2cnc(N)c(C(=O)Nc3ccccc3)n2)cc1 [VE-821] + CS(=O)(=O)CCNCc1ccc(-c2ccc3ncnc(Nc4ccc(OCc5cccc(F)c5)c(Cl)c4)c3c2)o1 [Lapatinib] (partner 2 µM)
In short: as §1

[3] = compound: CS(=O)(=O)c1ccc(C(=O)Nc2ccc(Cl)c(-c3ccccn3)c2)c(Cl)c1 [Vismodegib] + C[C@]1(O)C[C@@H](c2nc(-c3ccc4ccc(-c5ccccc5)nc4c3)c3c(N)nccn32)C1 [Linsitinib] (partner 1 µM)
In short: as §1

[4] = compound: CS(=O)(=O)c1ccc(C(=O)Nc2ccc(Cl)c(-c3ccccn3)c2)c(Cl)c1 [Vismodegib] + CC(C)C[C@H](NC(=O)[C@H](Cc1ccccc1)NC(=O)c1cnccn1)B(O)O [Bortezomib] (partner 0.002 µM)
In short: as §1

Cell Line | relative viability ([1]; first compound 0.08 µM) | relative viability ([1]; first compound 0.253 µM) | relative viability ([1]; first compound 0.8 µM) | relative viability ([1]; first compound 2.53 µM) | relative viability ([1]; first compound 8 µM) | relative viability ([2]; first compound 0.08 µM) | relative viability ([2]; first compound 0.253 µM) | relative viability ([2]; first compound 0.8 µM) | relative viability ([2]; first compound 2.53 µM) | relative viability ([2]; first compound 8 µM) | relative viability ([3]; first compound 0.08 µM) | relative viability ([3]; first compound 0.253 µM) | relative viability ([3]; first compound 0.8 µM) | relative viability ([3]; first compound 2.53 µM) | relative viability ([3]; first compound 8 µM) | relative viability ([4]; first compound 0.08 µM) | relative viability ([4]; first compound 0.253 µM) | relative viability ([4]; first compound 0.8 µM) | relative viability ([4]; first compound 2.53 µM) | relative viability ([4]; first compound 8 µM)
NCI-H727 | 0.478 | 0.57 | 0.411 | 0.546 | 0.216 | 1.02 | 0.755 | 0.804 | 0.714 | 0.436 | 0.336 | 0.319 | 0.286 | 0.376 | 0.239 | 0.876 | 0.835 | 0.905 | 0.939 | 0.77
NCI-H23 | 0.856 | 0.797 | 0.553 | 0.747 | 0.491 | 1.19 | 1.07 | 1.27 | 0.989 | 0.394 | 0.591 | 0.511 | 0.643 | 0.488 | 0.677 | 1.16 | 1.01 | 0.931 | 0.986 | 0.944
SK-LU-1 | 0.781 | 0.871 | 0.744 | 0.366 | 0.247 | 0.907 | 0.668 | 0.625 | 0.582 | 0.525 | 1.35 | 1.06 | 1.23 | 0.693 | 1.13 | 1.17 |  | 0.979 | 1.1 | 1.16
LOU-NH91 | 0.75 | 0.732 | 0.592 | 0.777 | 0.564 | 0.758 | 0.821 | 0.764 | 0.697 | 0.655 | 0.926 | 0.972 | 0.916 | 0.951 | 0.961 | 0.507 | 0.537 | 0.471 | 0.389 | 0.498
NCI-H647 | 1.09 | 1.15 | 0.856 | 1 | 0.573 | 1.15 | 0.884 | 1 | 1.16 | 0.535 | 1.16 | 1.21 | 1.19 | 0.911 | 1.34 | 1.01 | 0.925 | 1.12 | 1.05 | 1.1
LXF-289 | 1.01 | 0.967 | 0.989 | 1.1 | 1.01 | 1.02 | 0.993 | 0.911 | 1.07 | 0.966 | 0.959 | 0.929 | 0.98 | 0.976 | 0.919 | 0.985 | 0.977 | 1.02 | 0.965 | 0.944
PC-3 [JPC-3] | 0.837 | 0.801 | 0.859 | 0.789 | 0.744 | 0.512 | 0.474 | 0.461 | 0.482 | 0.424 | 0.934 | 0.941 | 1.04 | 0.988 | 0.933 | 0.827 | 0.929 | 0.786 | 0.766 | 0.93
NCI-H2009 | 1.16 | 1.13 | 1.13 | 1.26 | 1.16 | 0.89 | 0.959 | 0.893 | 0.997 | 0.977 | 1.14 | 1.18 | 1.19 | 1.16 | 1.26 | 0.947 | 0.986 | 0.976 | 0.967 | 1.04
NCI-H1993 | 0.787 | 0.747 | 0.772 | 0.797 | 0.694 | 0.947 | 0.837 | 0.75 | 0.784 | 0.826 | 0.737 | 0.816 | 0.669 | 0.677 | 0.775 | 1.03 | 1.24 | 0.983 | 1.05 | 1.08
HCC-15 | 0.813 | 0.706 | 0.778 | 0.772 | 0.676 | 0.958 | 0.875 | 0.87 | 1.09 | 0.796 | 0.896 | 0.876 | 0.834 | 1.01 | 0.897 | 0.978 | 1.07 | 0.938 | 1.09 | 1
NCI-H322M | 1.24 |  | 1.39 | 1.38 | 1.08 | 0.555 |  | 0.654 | 0.627 | 0.508 | 0.771 | 1.01 | 0.975 | 0.958 | 0.924 | 1.25 | 1.12 | 1.22 | 1.23 | 1.13
